Patent US9422292B2, “Bromodomain inhibitors and uses thereof” (Constellation Pharmaceuticals, Inc., priority 2011, dated 2016)
Like-named read-outs stand apart in the source and are kept apart here.

Assays:
[1] = test system: MYC mRNA in MV4:11 (AML) cells; assay: cMyc RNA quantification assay (QuantiGene) in MV4:11 cells; type: cell-based; conditions: Homo sapiens, 4 h, QuantiGene 2.0
Procedure: B. cMyc RNA Quantification Assay (QuantiGene® Assay):
MV4:11 (AML) cells were seeded in a 96-well plate and incubated in the presence of various concentrations of compounds for 4 h. Relative mRNA levels were quantitated by using QuantiGene 2.0 assay (Affymetrix) according to the manufacturer's recommendation. Signals were detected by using an Envision plate reader (Perkin-Elmer). Biological duplicates were averaged and normalized to vehicle (DMSO) control to calculate percent MYC mRNA levels.

[2] = test system: IL-6 secretion in THP-1 cells; assay: Cell-based IL-6 quantification assay (ELISA, Mesoscale) in LPS-treated THP-1 cells; conditions: Homo sapiens, LPS 4 μg/mL, 16 h, ELISA value/CellTiter-Glo ratio
Procedure: C. Cell-Based IL-6 Quantification Assay (ELISA, Mesoscale Assay):
100,000 THP-1 cells were seeded in RPMI1640-10% FBS in 96-well plates. LPS (E. Coli Invitrogen) in RPMI−10% FBS at a final concentration of 4 μg/mL was added to the wells and the cells are then incubated in the presence of various concentrations of compounds for 16 h. Plates are spun ([…], 5 min), an aliquot of 25 uL supernatant is transferred in to an ELISA plate (Mesoscale technology, MSD) and the detection of IL-6 is performed using manufacturer's instructions. The amount of cells in each well is assessed using CellTiter-Glo® (Promega). The ratio of ELISA value/CellTiter-Glo value is used to calculate the percent of inhibition of IL-6 secretion.

BRD4 (BD1) = biological target: T1, BRD4 (BD1) (Homo sapiens, UniProt O60885); assay: BRD4 AlphaLisa binding assay
T1 construct: His; made in house
Procedure: A. IC50 Measurements for Inhibitors Using BRD4 AlphaLisa Binding Assay.
Specifically, in a 384 well ProxiPlate BRD4 (BD1) (30 nM final) was combined with peptide (200 nM final) in 40 mM HEPES (pH 7.0), 40 mM NaCl, 1 mM DTT, 0.01% (w/v) BSA, and 0.008% (w/v) Brij-35 either in the presence of DMSO (final 1.2% DMSO) or compound dilution series in DMSO. After 20 minute incubation at room temperature Alpha streptavidin donor beads and AlphaLisa anti-Flag acceptor beads were added to a final concentration of 10 ug/mL each. After three hours equilibration plates were read on an Envision instrument and IC50s calculated using a four parameter non-linear curve fit.

[3] = BRD4 (BD1) 30 nM, biotinylated H4-tetraacetyl peptide 200 nM, read-out: BRD4 AlphaLisa

## Cc1nnc2n1-c1ccc(-c3cnn(C)n3)cc1N(c1ccc(C#N)cc1)C[C@H]2C [Compound 75, (S)-4H-[1,2,4]Triazolo[4,3-a][1,5]benzodiazepine, 5,6-dihydro-1,4-dimethyl-8-(2-methyl-2H-1,2,3-triazole-4-yl)-6-(4-cyano-phenyl)]
[1]
  IC50: < 100 nM
[2]
  IC50: < 100 nM
BRD4 (BD1); [3]
  IC50: < 100 nM

## Cc1nnc2n1-c1ccc(-c3ccc(N)nc3)cc1N(c1ccc(C(N)=O)cc1)CC2C (stereo in doubt) [Compound 69, (R)-4-(8-(6-aminopyridin-3-yl)-1,4-dimethyl-4H-benzo[b][1,2,4]triazolo[4,3-d][1,4]diazepin-6(5H)-yl)benzamide]
[1]
  IC50: 1000 to 10000 nM
[2]
  IC50: 1000 to 10000 nM
BRD4 (BD1); [3]
  IC50: 100 to 1000 nM

## Cc1nnc2n1-c1ccc(C(=O)NCCO)cc1N(c1ccc(Cl)cc1)C[C@H]2C [Compound 47, 4-R-4H-[1,2,4]triazolo[4,3-a][1,5]benzodiazepine,5,6-dihydro-1,4-dimethyl-8-(2-hydroxyethylcarbamoyl)-6-(4-chloro-phenyl)]
[1]
  IC50: 100 to 1000 nM
[2]
  IC50: 100 to 1000 nM
BRD4 (BD1); [3]
  IC50: 100 to 1000 nM

## Cc1nnc2n1-c1ccc(C#CC(C)(C)N)cc1N(c1ccc(Cl)cc1)CC2C (stereo not shown) [Compound 31, 4H-[1,2,4]triazolo[4,3-a][1,5]benzodiazepine,5,6-dihydro-1,4-dimethyl-8-(3-amino-3-methylbut-1-ynyll)-6-(4-chloro-phenyl)]
BRD4 (BD1); [3]
  IC50: 100 to 1000 nM

## Cc1nnc2n1-c1ccc(-c3ccc(N)nc3)cc1N(c1cnn(C)c1)C[C@H]2C [Compound 76, (R)-5-(1,4-dimethyl-6-(1-methyl-1H-pyrazol-4-yl)-5,6-dihydro-4H-benzo[b][1,2,4]triazolo[4,3-d][1,4]diazepin-8-yl)pyridin-2-amine]
[1]
  IC50: 100 to 1000 nM
[2]
  IC50: 100 to 1000 nM

## Cc1nnc2n1-c1ccc(-c3ccccc3)cc1N(C)CC2 [Compound 4, 1,6-dimethyl-8-phenyl-5,6-dihydro-4H-benzo[b][1,2,4]triazolo[4,3-d][1,4]diazepine]
[2]
  IC50: > 10000 nM
BRD4 (BD1); [3]
  IC50: > 10000 nM

## Cc1nnc2n1-c1ccc(-c3ccc(N)nc3)cc1NCC2 [Compound 6, 5-(1-methyl-5,6-dihydro-4H-benzo[b][1,2,4]triazolo[4,3-d][1,4]diazepin-8-yl)pyridin-2-amine]
[2]
  IC50: > 10000 nM
BRD4 (BD1); [3]
  IC50: 1000 to 10000 nM

## Cc1nnc2n1-c1ccc(-c3cnn(C)c3)cc1N(c1ccc(C#N)cc1)C[C@@H]2C [Compound 45, (S)-4H-[1,2,4]triazolo[4,3-a][1,5]benzodiazepine,5,6-dihydro-1,4-dimethyl-8-(1-methyl-1H-pyrazol-4-yl)-6-(4-cyano-phenyl)]
[2]
  IC50: > 1000 nM
BRD4 (BD1); [3]
  IC50: 100 to 1000 nM

## Cc1nnc2n1-c1ccc(-c3ccccc3)cc1NCC2 [Compound 7, 1-methyl-8-phenyl-5,6-dihydro-4H-benzo[b][1,2,4]triazolo[4,3-d][1,4]diazepine]
[2]
  IC50: > 1000 nM
BRD4 (BD1); [3]
  IC50: > 10000 nM

## Cc1nnc2n1-c1ccc(-c3ccccc3)cc1N(c1ccc(Cl)cc1)CC2 [Compound 14, 6-(4-chlorophenyl)-1-methyl-8-phenyl-5,6-dihydro-4H-benzo[b][1,2,4]triazolo[4,3-d][1,4]diazepine]
[2]
  IC50: 1000 to 10000 nM
BRD4 (BD1); [3]
  IC50: 100 to 1000 nM

## Cc1nnc2n1-c1ccc(-c3ccc(N)nc3)cc1N(C)CC2 [Compound 5, 5-(1,6-dimethyl-5,6-dihydro-4H-benzo[b][1,2,4]triazolo[4,3-d][1,4]diazepin-8-yl)pyridin-2-amine]
[2]
  IC50: 1000 to 10000 nM
BRD4 (BD1); [3]
  IC50: 1000 to 10000 nM

## Cc1nnc2n1-c1ccc(-c3ccc(=O)[nH]c3)cc1N(c1ccc(S(C)(=O)=O)cc1)C[C@H]2C [Compound 78, (R)-5-(1,4-dimethyl-6-(4-(methylsulfonyl)phenyl)-5,6-dihydro-4H-benzo[b][1,2,4]triazolo[4,3-d][1,4]diazepin-8-yl)pyridin-2(1H)-one]
[1]
  IC50: 1000 to 10000 nM
BRD4 (BD1); [3]
  IC50: 100 to 1000 nM

## Cc1nnc2n1-c1ccccc1NC(C)C2 (stereo not shown) [Compound 12, 1,5-dimethyl-5,6-dihydro-4H-benzo[b][1,2,4]triazolo[4,3-d][1,4]diazepine]
[2]
  IC50: > 10000 nM
BRD4 (BD1); [3]
  IC50: > 10000 nM

## CCNC(=O)CC1CN(c2ccc(Cl)cc2)c2ccccc2-n2c(C)nnc21 (stereo not shown) [Compound 10, 2-(6-(4-chlorophenyl)-1-methyl-5,6-dihydro-4H-benzo[b][1,2,4]triazolo[4,3-d][1,4]diazepin-4-yl)-N-ethylacetamide]
[2]
  IC50: 1000 to 10000 nM
BRD4 (BD1); [3]
  IC50: 1000 to 10000 nM

## Cc1nnc2n1-c1ccc(C(=O)N3CCOCC3)cc1N(c1ccc(Cl)cc1)C[C@H]2C [Compound 56, 4-R-4H-[1,2,4]triazolo[4,3-a][1,5]benzodiazepine,5,6-dihydro-1,4-dimethyl-8-(morpholine-4-carbonyl)-6-(4-chloro-phenyl)]
[2]
  IC50: > 1000 nM
BRD4 (BD1); [3]
  IC50: 100 to 1000 nM

## Cc1nnc2n1-c1ccc(Br)cc1N(c1ccc(Cl)cc1)CC2 [Compound 13, 8-bromo-6-(4-chlorophenyl)-1-methyl-5,6-dihydro-4H-benzo[b][1,2,4]triazolo[4,3-d][1,4]diazepine]
[2]
  IC50: 100 to 1000 nM
BRD4 (BD1); [3]
  IC50: 100 to 1000 nM

## Cc1nnc2n1-c1ccc(Br)cc1N(c1ccc(Cl)cc1)CC21CC1 [Compound 33, 8-bromo-6-(4-chlorophenyl)-1-methyl-5,6-dihydrospiro[benzo[b][1,2,4]triazolo[4,3-d][1,4]diazepine-4,1′-cyclopropane]]
BRD4 (BD1); [3]
  IC50: 100 to 1000 nM

## Cc1nnc2n1-c1ccccc1N(c1ccc(Cl)cc1)CC2CCO (stereo not shown) [Compound 9, 2-(6-(4-chlorophenyl)-1-methyl-5,6-dihydro-4H-benzo[b][1,2,4]triazolo[4,3-d][1,4]diazepin-4-yl)ethanol]
[2]
  IC50: 1000 to 10000 nM
BRD4 (BD1); [3]
  IC50: 1000 to 10000 nM

## Cc1nnc2n1-c1ccc(-c3cnn(C)c3)cc1N(c1ccc(Cl)cc1)CC2 [Compound 30, 4H-[1,2,4]triazolo[4,3-a][1,5]benzodiazepine,5,6-dihydro-1methyl-8-(1-methyl-1H-pyrazol-4-yl)-6-(4-chloro-phenyl)]
BRD4 (BD1); [3]
  IC50: < 100 nM

## Cc1nnc2n1-c1ccccc1N(c1ccc(Cl)cc1)CC21CC1CO (stereo not shown) [Compound 11, (6-(4-chlorophenyl)-1-methyl-5,6-dihydrospiro[benzo[b][1,2,4]triazolo[4,3-d][1,4]diazepine-4,1′-cyclopropan]-2′-yl)methanol]
[2]
  IC50: 1000 to 10000 nM
BRD4 (BD1); [3]
  IC50: 1000 to 10000 nM

## Cc1nnc2n1-c1ccc(-c3cnn(C)n3)cc1N(c1ccc(C#N)cc1)C[C@@H]2C [Compound 74, (R)-4H-[1,2,4]Triazolo[4,3-a][1,5]benzodiazepine, 5,6-dihydro-1,4-dimethyl-8-(2-methyl-2H-1,2,3-triazole-4-yl)-6-(4-cyano-phenyl)]
[2]
  IC50: > 1000 nM
BRD4 (BD1); [3]
  IC50: 100 to 1000 nM

## Cc1nnc2n1-c1cc(F)ccc1N(c1ccc(Cl)cc1)CC2C (stereo not shown) [Compound 35, 4H-[1,2,4]triazolo[4,3-a][1,5]benzodiazepine,5,6-dihydro-1,4-dimethyl-9-fluoro-6-(4-chloro-phenyl)]
BRD4 (BD1); [3]
  IC50: 100 to 1000 nM

## Cc1nnc2n1-c1ccccc1N(c1ccc(Cl)cn1)CC2 [Compound 8, 6-(5-chloropyridin-2-yl)-1-methyl-5,6-dihydro-4H-benzo[b][1,2,4]triazolo[4,3-d][1,4]diazepine]
[2]
  IC50: 1000 to 10000 nM
BRD4 (BD1); [3]
  IC50: 1000 to 10000 nM

## CCC1CN(c2ccc(Cl)cc2)c2ccccc2-n2c(C)nnc21 (stereo not shown) [Compound 32]
BRD4 (BD1)
  IC50: 1000 to 10000 nM

## Cc1nnc2n1-c1ccc(-c3cnc(N)nc3)cc1N(c1ccc(Cl)cc1)C[C@@H]2C [Compound 40, (S)-4H-[1,2,4]triazolo[4,3-a][1,5]benzodiaze-pine,5,6-dihydro-1,4-dimethyl-8-(2-aminopyrimidin-5-yl)-6-(4-chloro-phenyl)]
[2]
  IC50: > 1000 nM
BRD4 (BD1); [3]
  IC50: 1000 to 10000 nM

## Cc1nnc2n1-c1ccc(C#CC(C)(C)O)cc1N(c1ccc(Cl)cc1)CC2C (stereo not shown) [Compound 36, 4H-[1,2,4]triazolo[4,3-a][1,5]benzodiazepine,5,6-dihydro-1,4-dimethyl-8-(3-hydroxy-3-methylbut-1-ynyl)-6-(4-chloro-phenyl)]
BRD4 (BD1); [3]
  IC50: 100 to 1000 nM

## Cc1nnc2n1-c1ccccc1N(c1ccc(Cl)cc1)CC21CC1 [Compound 34, 6-(4-chlorophenyl)-1-methyl-5,6-dihydrospiro[benzo[b][1,2,4]triazolo[4,3-d][1,4]diazepine-4,1′-cyclopropane]]
BRD4 (BD1); [3]
  IC50: 100 to 1000 nM

## Cc1nnc2n1-c1ccc(-c3cnc(N)cn3)cc1N(c1ccc(S(C)(=O)=O)cc1)C[C@H]2C [Compound 79, (R)-5-(1,4-dimethyl-6-(4-(methylsulfonyl)phenyl)-5,6-dihydro-4H-benzo[b][1,2,4]triazolo[4,3-d][1,4]diazepin-8-yl)pyrazin-2-amine]
[1]
  IC50: 100 to 1000 nM
BRD4 (BD1); [3]
  IC50: < 100 nM
